Experimental findings from US10144706B2 (BRISTOL-MYERS SQUIBB COMPANY, priority 2016, dated 2018) are described below.

For the first test, the target named is T1, PD-1/PD-L1 interaction (PD-1-Ig / PD-L1-His) (Homo sapiens, UniProt Q9NZQ7).
T1 construct: hPDL1(18-239)-TVMV-His; TVMV protease site linker (C); made in house; host or cells: HEK293T
T1 sequence (Q9NZQ7 with tags, fused parts or gaps): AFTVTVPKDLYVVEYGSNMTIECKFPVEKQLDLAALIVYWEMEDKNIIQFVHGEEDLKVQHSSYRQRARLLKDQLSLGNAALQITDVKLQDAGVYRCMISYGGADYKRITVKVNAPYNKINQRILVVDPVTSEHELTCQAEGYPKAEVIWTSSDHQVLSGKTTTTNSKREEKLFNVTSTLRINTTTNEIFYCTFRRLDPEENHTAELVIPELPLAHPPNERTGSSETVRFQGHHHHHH
Nature of the test: PD-1/PD-L1 Homogenous Time-Resolved Fluorescence (HTRF) binding assay. The conditions noted are these: IC50 range class; PD-L1-His 10 nM, PD-1-Ig 20 nM; read-out: Range or IC50. Summed up:
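Human PD-L1-His (10 nM final) was pre-incubated with inhibitor for 15 min, then PD-1-Ig (20 nM final) was added for a further 15 min in dPBS with 0.1% BSA and 0.05% Tween-20. Binding was detected by HTRF using Eu-cryptate anti-Ig (1 nM) and APC anti-His (20 nM).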
Take `COC(=O)[C@@H]1CCCCN1Cc1cc(Cl)c(OCc2cccc(-c3cccc(COc4cc(OCc5cncc(C#N)c5)c(CN5CCCC[C@H]5C(=O)OC)cc4Cl)c3C)c2C)cc1OCc1cncc(C#N)c1` [Example 40300]: the IC50 lay within 90.1 to 1000 nM. The same measure, in the same setting: as for `COC(=O)C1CCN(Cc2cc(Cl)c(OCc3cccc(-c4cccc(COc5cc(OCc6cncc(C#N)c6)c(CN6CCC(C(=O)OC)C(O)C6)cc5Cl)c4C)c3C)cc2OCc2cncc(C#N)c2)CC1O` (stereo not drawn) [Example 40310], the figure is 20.1 to 90 nM; as for `COC[C@H](NCc1cc(Cl)c(OCc2cccc(-c3cccc(COc4cc(OCc5cncc(C#N)c5)c(CN[C@@H](COC)C(=O)O)cc4Cl)c3C)c2C)cc1OCc1cncc(C#N)c1)C(=O)O` [Example 40340], 0.04 to 20 nM. On the same count and under the same terms, in the case of `Cc1c(COc2cc(OCc3cncc(C#N)c3)c(CN3CCC[C@H]3C(=O)O)cc2Cl)cccc1-c1cccc(COc2cc(OCc3cncc(C#N)c3)c(CN3CCC[C@H]3C(=O)O)cc2Cl)c1C` [Example 40350] it was 0.04 to 20 nM. `Cc1c(COc2cc(OCc3cncc(C#N)c3)c(CN[C@H](C(=O)O)c3ccccc3)cc2Cl)cccc1-c1cccc(COc2cc(OCc3cncc(C#N)c3)c(CN[C@H](C(=O)O)c3ccccc3)cc2Cl)c1C` [Example 40360]: the IC50 was 0.04 to 20 nM.

For `Cc1c(COc2cc(OCc3cncc(C#N)c3)c(CN3CCOC[C@@H]3C(=O)O)cc2Cl)cccc1-c1cccc(COc2cc(OCc3cncc(C#N)c3)c(CN3CCOC[C@@H]3C(=O)O)cc2Cl)c1C` [Example 40370], the concentration for half-maximal inhibition (IC50) lay within 0.04 to 20 nM.

As for `Cc1c(COc2cc(OCc3cncc(C#N)c3)c(CN3CCCC(C(=O)O)C3)cc2Cl)cccc1-c1cccc(COc2cc(OCc3cncc(C#N)c3)c(CN3CCCC(C(=O)O)C3)cc2Cl)c1C` (stereo not drawn) [Example 40380], the half-inhibitory concentration (IC50) is 0.04 to 20 nM. Same read-out and setting: as for `Cc1c(COc2cc(OCc3cncc(C#N)c3)c(CNC(CC(=O)O)c3ccc(F)cc3)cc2Cl)cccc1-c1cccc(COc2cc(OCc3cncc(C#N)c3)c(CNC(CC(=O)O)c3ccc(F)cc3)cc2Cl)c1C` (stereo not drawn) [Example 40390], the figure is 20.1 to 90 nM; as for `Cc1c(COc2cc(OCc3cncc(C#N)c3)c(CNC(C)CC(=O)O)cc2Cl)cccc1-c1cccc(COc2cc(OCc3cncc(C#N)c3)c(CNC(C)CC(=O)O)cc2Cl)c1C` (stereo not drawn) [Example 40400], 0.04 to 20 nM; as for `Cc1c(COc2cc(OCc3cncc(C#N)c3)c(CNCCC(=O)O)cc2Cl)cccc1-c1cccc(COc2cc(OCc3cncc(C#N)c3)c(CNCCC(=O)O)cc2Cl)c1C` [Example 40410], 0.04 to 20 nM. On the same count and under the same terms, as for `Cc1c(COc2cc(OCc3cncc(C#N)c3)c(CN3CC(C(=O)O)C3)cc2Cl)cccc1-c1cccc(COc2cc(OCc3cncc(C#N)c3)c(CN3CC(C(=O)O)C3)cc2Cl)c1C` [Example 40420], the figure is 0.04 to 20 nM; as for `Cc1c(COc2cc(OCc3cncc(C#N)c3)c(CN3C[C@@H](C)C[C@H]3C(=O)O)cc2Cl)cccc1-c1cccc(COc2cc(OCc3cncc(C#N)c3)c(CN3C[C@@H](C)C[C@H]3C(=O)O)cc2Cl)c1C` [Example 40430], 0.04 to 20 nM; as for `Cc1c(COc2cc(OCc3cncc(C#N)c3)c(CNC(C(=O)O)C(C)C)cc2Cl)cccc1-c1cccc(COc2cc(OCc3cncc(C#N)c3)c(CNC(C(=O)O)C(C)C)cc2Cl)c1C` (stereo not drawn) [Example 40440], 0.04 to 20 nM. Same read-out and setting: in the case of `CSCCC(NCc1cc(Cl)c(OCc2cccc(-c3cccc(COc4cc(OCc5cncc(C#N)c5)c(CNC(CCSC)C(=O)O)cc4Cl)c3C)c2C)cc1OCc1cncc(C#N)c1)C(=O)O` (stereo not drawn) [Example 40450] it was 0.04 to 20 nM; in that of `Cc1c(COc2cc(OCc3cncc(C#N)c3)c(CNC(Cc3c[nH]c4ccccc34)C(=O)O)cc2Cl)cccc1-c1cccc(COc2cc(OCc3cncc(C#N)c3)c(CNC(Cc3c[nH]c4ccccc34)C(=O)O)cc2Cl)c1C` (stereo not drawn) [Example 40460], 0.04 to 20 nM; in that of `Cc1c(COc2cc(OCc3cncc(C#N)c3)c(CN[C@@H](CC#N)C(=O)O)cc2Cl)cccc1-c1cccc(COc2cc(OCc3cncc(C#N)c3)c(CN[C@@H](CC#N)C(=O)O)cc2Cl)c1C` [Example 40470], 0.04 to 20 nM. On to `Cc1c(COc2cc(OCc3cncc(C#N)c3)c(CNC(Cc3ccccc3)C(=O)O)cc2Cl)cccc1-c1cccc(COc2cc(OCc3cncc(C#N)c3)c(CNC(Cc3ccccc3)C(=O)O)cc2Cl)c1C` (stereo not drawn) [Example 40480], for which the half-inhibitory concentration (IC50) was in the range of 0.04 to 20 nM.

Consider `Cc1c(COc2cc(OCc3cncc(C#N)c3)c(CN3CCC[C@H](C(=O)O)C3)cc2Cl)cccc1-c1cccc(COc2cc(OCc3cncc(C#N)c3)c(CN3CCC[C@H](C(=O)O)C3)cc2Cl)c1C` [Example 40490], for which the 50% inhibitory concentration (IC50) was in the range of 0.04 to 20 nM. As to `Cc1c(COc2cc(OCc3cncc(C#N)c3)c(CNC[C@H](C)C(=O)O)cc2Cl)cccc1-c1cccc(COc2cc(OCc3cncc(C#N)c3)c(CNC[C@H](C)C(=O)O)cc2Cl)c1C` [Example 40500], the 50% inhibitory concentration (IC50) is 0.04 to 20 nM.

As for `Cc1c(COc2cc(OCc3cncc(C#N)c3)c(CNC3CCC[C@@H]3C(=O)O)cc2Cl)cccc1-c1cccc(COc2cc(OCc3cncc(C#N)c3)c(CN[C@@H]3CCC[C@@H]3C(=O)O)cc2Cl)c1C` (stereo partly drawn) [Example 40510], the 50% inhibitory concentration (IC50) was 0.04 to 20 nM. On the same count and under the same terms, as for `Cc1c(COc2cc(OCc3cncc(C#N)c3)c(CN3CC(C(=O)O)C(c4ccccc4Cl)C3)cc2Cl)cccc1-c1cccc(COc2cc(OCc3cncc(C#N)c3)c(CN3CC(C(=O)O)C(c4ccccc4Cl)C3)cc2Cl)c1C` (stereo not drawn) [Example 40520], the figure is 90.1 to 1000 nM. With `Cc1c(COc2cc(OCc3cncc(C#N)c3)c(CN[C@H](CC(=O)O)Cc3ccc(I)cc3)cc2Cl)cccc1-c1cccc(COc2cc(OCc3cncc(C#N)c3)c(CN[C@H](CC(=O)O)Cc3ccc(I)cc3)cc2Cl)c1C` [Example 40530], the IC50 fell in the range of 90.1 to 1000 nM. The same measure, in the same setting: in the case of `Cc1c(COc2cc(OCc3cncc(C#N)c3)c(CNC(Cc3ccccc3)C(N)=O)cc2Cl)cccc1-c1cccc(COc2cc(OCc3cncc(C#N)c3)c(CNC(Cc3ccccc3)C(N)=O)cc2Cl)c1C` (stereo not drawn) [Example 40590] it was 90.1 to 1000 nM. Same read-out and setting: as for `Cc1c(COc2cc(OCc3cncc(C#N)c3)c(CN[C@@H](Cc3cnc[nH]3)C(N)=O)cc2Cl)cccc1-c1cccc(COc2cc(OCc3cncc(C#N)c3)c(CN[C@@H](Cc3cnc[nH]3)C(N)=O)cc2Cl)c1C` [Example 40620], the figure is 20.1 to 90 nM; as for `Cc1c(COc2cc(OCc3cncc(C#N)c3)c(CN[C@H](C(N)=O)C3CC3)cc2Cl)cccc1-c1cccc(COc2cc(OCc3cncc(C#N)c3)c(CN[C@H](C(N)=O)C3CC3)cc2Cl)c1C` [Example 40670], 20.1 to 90 nM. The same measure, in the same setting: in the case of `Cc1c(COc2cc(OCc3cncc(C#N)c3)c(CN3CCC[C@H]3C(N)=O)cc2Cl)cccc1-c1cccc(COc2cc(OCc3cncc(C#N)c3)c(CN3CCC[C@H]3C(N)=O)cc2Cl)c1C` [Example 40680] it was 90.1 to 1000 nM; in that of `Cc1c(COc2cc(OCc3cncc(C#N)c3)c(CN3CCC[C@@H]3C(N)=O)cc2Cl)cccc1-c1cccc(COc2cc(OCc3cncc(C#N)c3)c(CN3CCC[C@@H]3C(N)=O)cc2Cl)c1C` [Example 40690], 90.1 to 1000 nM; in that of `Cc1c(COc2cc(OCc3cncc(C#N)c3)c(CN[C@@H](Cc3c[nH]c4ccccc34)C(=O)O)cc2Cl)cccc1-c1cccc(COc2cc(OCc3cncc(C#N)c3)c(CN[C@@H](Cc3c[nH]c4ccccc34)C(=O)O)cc2Cl)c1C` [Example 40700], 0.04 to 20 nM.

In the case of `COC(=O)CC(O)CNCc1cc(Cl)c(OCc2cccc(-c3cccc(COc4cc(OCc5cncc(C#N)c5)c(CNCC(O)CC(=O)OC)cc4Cl)c3C)c2C)cc1OCc1cncc(C#N)c1` (stereo not drawn) [Example 40710], the concentration for half-maximal inhibition (IC50) lay in the range of 0.04 to 20 nM. The same measure, in the same setting: as for `COC(=O)CC(O)CNCc1cc(Cl)c(OCc2cccc(-c3cccc(COc4cc(OCc5cncc(C#N)c5)c(CNC/C=C\C(=O)O)cc4Cl)c3C)c2C)cc1OCc1cncc(C#N)c1` (stereo not drawn) [Example 40720], the figure is 20.1 to 90 nM; as for `Cc1c(COc2cc(OCc3cncc(C#N)c3)c(CN[C@@H](CCO)C(=O)O)cc2Cl)cccc1-c1cccc(COc2cc(OCc3cncc(C#N)c3)c(CN[C@@H](CCO)C(=O)O)cc2Cl)c1C` [Example 40740], 0.04 to 20 nM; as for `CCCN(Cc1cc(Cl)c(OCc2cccc(-c3cccc(COc4cc(OCc5cncc(C#N)c5)c(CN(CCC)[C@@H](CCO)C(=O)O)cc4Cl)c3C)c2C)cc1OCc1cncc(C#N)c1)[C@@H](CCO)C(=O)O` [Example 40750], 0.04 to 20 nM. As to `Cc1c(COc2cc(OCc3cncc(C#N)c3)c(CN(C)[C@@H](CCO)C(=O)O)cc2Cl)cccc1-c1cccc(COc2cc(OCc3cncc(C#N)c3)c(CN(C)[C@@H](CCO)C(=O)O)cc2Cl)c1C` [Example 40760], the half-maximal inhibitory concentration (IC50) was 0.04 to 20 nM. On the same count and under the same terms, as for `COCCC(NCc1cc(Cl)c(OCc2cccc(-c3cccc(COc4cc(OCc5cncc(C#N)c5)c(CNC(CCOC)C(=O)O)cc4Cl)c3C)c2C)cc1OCc1cncc(C#N)c1)C(=O)O` (stereo not drawn) [Example 40780], the figure is 0.04 to 20 nM; as for `CCN(Cc1cc(Cl)c(OCc2cccc(-c3cccc(COc4cc(OCc5cncc(C#N)c5)c(CN(CC)C(CCO)C(=O)O)cc4Cl)c3C)c2C)cc1OCc1cncc(C#N)c1)C(CCO)C(=O)O` (stereo not drawn) [Example 40800], 0.04 to 20 nM. Turning to `Cc1c(COc2cc(OCc3cncc(C#N)c3)c(CN(C)C(CCO)C(=O)O)cc2Cl)cccc1-c1cccc(COc2cc(OCc3cncc(C#N)c3)c(CN(C)C(CCO)C(=O)O)cc2Cl)c1C` (stereo not drawn) [Example 40810], the IC50 was 20.1 to 90 nM.

The test is the same for the next values; noted with them: numeric IC50; PD-L1-His 10 nM, PD-1-Ig 20 nM; read-out: Range or IC50.
For `COC(=O)CC(CC(C)C)NCc1cc(Cl)c(OCc2cccc(-c3cccc(COc4cc(OCc5cncc(C#N)c5)c(CNC(CC(=O)OC)CC(C)C)cc4Cl)c3C)c2C)cc1OCc1cncc(C#N)c1` (stereo not drawn) [Example 40550], the IC50 was determined as 9220 nM.

For `Cc1c(COc2cc(OCc3cncc(C#N)c3)c(CNC/C=C\C(=O)O)cc2Cl)cccc1-c1cccc(COc2cc(OCc3cncc(C#N)c3)c(CNC/C=C\C(=O)O)cc2Cl)c1C` [Example 40730], the concentration for half-maximal inhibition (IC50) amounted to 22 nM. Same read-out and setting: as for `Cc1c(COc2cc(OCc3cncc(C#N)c3)c(CN[C@@H](CCO)C(=O)O)cc2Cl)cccc1-c1cccc(COc2cc(OCc3cncc(C#N)c3)c(CN[C@H](CCO)C(=O)O)cc2Cl)c1C` [Example 40770], the figure is 0.04 nM.

As usually defined, the IC50 is the concentration needed to halve the response being measured.
